Results as given in the supplement of paper PMC10307832.

Experiments:
Test in all cases: relative viability (nuclei count vs DMSO), 5 days (fraction); higher = more cells survive
[1] = compound: Cn1cnc2c(F)c(Nc3ccc(Br)cc3Cl)c(C(=O)NOCCO)cc21 [Selumetinib] + O=C(CCCCCCC(=O)Nc1ccccc1)NO [Vorinostat] (partner 1 µM)
How it was run: (§1)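 After 5 days of treatment, lung cancer cells in 1536-well plates were fixed and stained in a single step (final 0.05% Triton X-100, 1% formaldehyde, 1 ug/ml Hoechst) and their nuclei counted on 4× images. Treatment had been applied by pin tool the day after seeding as one drug alone or as a fixed anchor-drug dose with five library-drug doses (not always all listed) in √10 steps. Relative viability is the nuclei count of treated wells divided by that of vehicle wells, and values are medians of duplicate plates.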

[2] = compound: CC1(C)CCC(CN2CCN(c3ccc(C(=O)NS(=O)(=O)c4ccc(NCC5CCOCC5)c([N+](=O)[O-])c4)c(Oc4cnc5[nH]ccc5c4)c3)CC2)=C(c2ccc(Cl)cc2)C1 [Venetoclax] + CC(=O)Nc1cccc(-n2c(=O)n(C3CC3)c(=O)c3c(Nc4ccc(I)cc4F)n(C)c(=O)c(C)c32)c1 [Trametinib] (partner 0.02 µM)
How it was run: as §1

[3] = compound: CC1(C)CCC(CN2CCN(c3ccc(C(=O)NS(=O)(=O)c4ccc(NCC5CCOCC5)c([N+](=O)[O-])c4)c(Oc4cnc5[nH]ccc5c4)c3)CC2)=C(c2ccc(Cl)cc2)C1 [Venetoclax] + N=C(N)NC(=N)NCCc1ccccc1 [Phenformin] (partner 250 µM)
How it was run: as §1

[4] = compound: CC1(C)CCC(CN2CCN(c3ccc(C(=O)NS(=O)(=O)c4ccc(NCC5CCOCC5)c([N+](=O)[O-])c4)c(Oc4cnc5[nH]ccc5c4)c3)CC2)=C(c2ccc(Cl)cc2)C1 [Venetoclax] + Cc1nc(NC(=O)N2CCC[C@H]2C(N)=O)sc1-c1ccnc(C(C)(C)C(F)(F)F)c1 [Alpelisib] (partner 2 µM)
How it was run: as §1

Row | Cell Line | relative viability ([1]; first compound 0.02 µM) | relative viability ([1]; first compound 0.06325 µM) | relative viability ([1]; first compound 0.2 µM) | relative viability ([1]; first compound 0.6325 µM) | relative viability ([2]; first compound 0.01 µM) | relative viability ([2]; first compound 0.03162 µM) | relative viability ([2]; first compound 0.1 µM) | relative viability ([2]; first compound 0.3162 µM) | relative viability ([2]; first compound 1 µM) | relative viability ([3]; first compound 0.01 µM) | relative viability ([3]; first compound 0.03162 µM) | relative viability ([3]; first compound 0.1 µM) | relative viability ([3]; first compound 0.3162 µM) | relative viability ([3]; first compound 1 µM) | relative viability ([4]; first compound 0.01 µM) | relative viability ([4]; first compound 0.03162 µM) | relative viability ([4]; first compound 0.1 µM) | relative viability ([4]; first compound 0.3162 µM) | relative viability ([4]; first compound 1 µM)
1 | LCLC-103H | 0.811 | 0.768 | 0.712 | 0.691 | 0.714 | 0.663 | 0.635 | 0.679 | 0.654 | 0.335 | 0.298 | 0.352 | 0.313 | 0.333 | 1.04 | 0.983 | 1.04 | 1 | 0.974
2 | LK-2 | 0.296 | 0.288 | 0.296 | 0.711 | 0.894 | 0.762 | 0.596 | 0.628 | 0.639 | 0.479 | 0.605 | 0.491 | 0.617 | 0.357 | 0.993 | 1.28 | 1.12 | 1.19 | 1.06
3 | LOU-NH91 | 0.889 | 0.88 | 0.843 | 0.874 | 0.784 | 0.81 | 0.768 | 0.807 | 0.707 | 0.641 | 0.784 | 0.615 | 0.742 | 0.698 | 0.653 | 0.802 | 0.689 | 0.791 | 0.759
4 | LU99A | 0.521 | 0.472 | 0.476 | 0.501 | 0.485 | 0.611 | 0.482 | 0.566 | 0.596 | 0.852 | 0.92 | 0.799 | 0.878 | 0.822 | 0.432 | 0.545 | 0.548 | 0.522 | 0.505
5 | LXF-289 | 0.734 | 0.668 | 0.595 | 0.661 | 0.716 | 0.692 | 0.629 | 0.625 | 0.575 | 0.482 | 0.538 | 0.509 | 0.503 | 0.505 | 1.05 | 1 | 1.04 | 1.04 | 0.934
6 | NCI-H23 | 0.649 | 0.561 | 0.557 | 0.668 | 0.441 | 0.427 | 0.365 | 0.346 | 0.346 | 0.762 | 0.751 | 0.815 | 0.8 | 0.719 | 0.658 | 0.62 | 0.64 | 0.644 | 0.546
7 | NCI-H322M | 0.946 | 0.638 | 0.653 | 0.758 | 0.528 | 0.519 | 0.436 | 0.534 | 0.562 | 0.781 | 0.793 | 0.763 | 0.886 | 0.803 | 0.918 | 0.881 | 0.836 | 0.764 | 0.752
8 | NCI-H358 | 0.422 | 0.335 | 0.265 | 0.248 | 0.117 | 0.14 | 0.106 | 0.126 | 0.135 | 0.369 | 0.291 | 0.282 | 0.406 | 0.325 | 0.769 | 0.828 | 0.786 | 0.903 | 0.839
9 | NCI-H441 | 0.843 | 0.868 | 0.783 | 0.778 | 0.49 | 0.494 | 0.506 | 0.439 | 0.5 | 0.83 | 0.706 | 0.787 | 0.805 | 0.868 | 0.828 | 0.705 | 0.821 | 0.899 | 0.608
10 | NCI-H460 | 0.48 | 0.492 | 0.428 | 0.228 | 0.171 | 0.229 | 0.131 | 0.153 | 0.131 | 0.424 | 0.55 | 0.478 | 0.497 | 0.461 | 0.539 | 0.446 | 0.446 | 0.472 | 0.447
11 | NCI-H520 | 0.774 | 0.73 | 0.785 | 0.71 | 0.58 | 0.823 |  | 0.613 | 0.594 | 0.477 | 0.507 | 0.554 | 0.566 | 0.519 | 0.893 | 1.09 | 0.865 | 0.796 | 0.847
12 | NCI-H596 | 0.368 | 0.557 | 0.578 | 0.606 | 0.731 | 0.746 | 0.851 | 0.951 | 0.755 | 0.818 | 0.665 | 0.649 | 0.809 | 0.659 | 0.516 | 0.487 | 0.502 | 0.544 | 0.397
13 | NCI-H647 | 0.697 | 0.38 | 0.727 | 0.712 | 0.463 | 0.428 | 0.423 | 0.399 | 0.433 | 0.543 | 0.622 | 0.443 | 0.481 | 0.377 | 0.703 | 1.05 |  | 1 | 1.01
14 | NCI-H650 | 0.552 | 0.778 | 0.72 | 0.805 | 0.875 | 0.995 | 0.892 | 0.892 | 0.963 | 0.439 | 0.487 | 0.438 | 0.488 | 0.435 | 1.07 | 0.989 |  | 1.13 | 1.01
15 | NCI-H661 | 0.882 | 0.772 | 0.75 | 0.799 | 0.528 | 0.606 | 0.538 | 0.525 | 0.532 | 0.298 | 0.278 | 0.291 | 0.28 | 0.262 | 0.597 | 1.11 | 0.878 | 0.569 | 0.48
16 | NCI-H727 | 1.01 | 0.741 | 0.709 | 0.553 | 0.363 | 0.392 | 0.406 | 0.412 | 0.386 | 0.509 | 0.63 | 0.504 | 0.625 | 0.526 | 0.553 | 0.608 | 0.525 | 0.558 | 0.571
17 | NCI-H838 | 0.644 | 0.54 | 0.654 | 0.636 | 0.559 | 0.522 | 0.524 | 0.491 | 0.488 | 0.63 | 0.591 | 0.448 | 0.636 | 0.507 | 1.11 | 0.953 | 1.04 | 1.04 | 0.955
18 | NCI-H1355 | 0.561 | 0.529 | 0.488 | 0.382 | 0.455 | 0.46 | 0.435 | 0.432 | 0.44 | 0.436 | 0.474 | 0.467 | 0.468 | 0.412 | 0.842 | 0.782 | 0.784 | 0.785 | 0.805
19 | NCI-H1395 | 0.761 | 0.613 | 0.653 | 0.775 | 1.05 | 0.944 | 1.02 | 1.06 | 1.05 | 0.45 | 0.444 | 0.405 | 0.473 | 0.428 | 0.989 | 0.943 | 0.926 | 0.983 | 0.961
20 | NCI-H1437 | 0.749 | 0.7 | 0.576 | 0.429 | 0.5 | 0.52 | 0.529 | 0.463 | 0.435 | 0.377 | 0.348 | 0.266 | 0.34 | 0.296 | 0.985 | 0.989 | 1.05 | 0.938 | 0.926
21 | NCI-H1651 | 0.554 | 0.552 | 0.564 | 0.572 | 0.88 | 0.89 | 0.804 | 0.838 | 0.926 | 0.373 | 0.327 | 0.287 | 0.329 | 0.342 | 0.973 | 0.949 | 0.959 | 0.987 | 0.905
22 | NCI-H1666 | 1.02 | 0.902 | 1.06 | 0.86 | 0.764 | 0.809 | 0.73 | 0.824 | 0.858 | 0.546 | 0.605 | 0.531 | 0.582 | 0.56 | 0.8 | 0.89 | 1.13 | 0.971 | 1.04
23 | NCI-H1734 | 0.787 | 0.814 | 0.694 | 0.85 | 0.588 | 0.739 | 0.635 | 0.781 | 0.614 | 0.396 | 0.446 | 0.326 | 0.411 | 0.358 | 0.682 | 0.732 | 0.624 | 0.628 | 0.689
24 | NCI-H1755 | 0.821 | 0.68 | 0.726 | 0.852 | 0.713 | 0.765 | 0.768 | 0.715 | 0.736 | 0.645 | 0.616 | 0.573 | 0.629 | 0.555 | 0.968 | 0.912 | 0.842 | 0.962 | 0.893
25 | NCI-H1793 | 0.512 | 0.422 | 0.445 | 0.365 | 0.334 | 0.46 | 0.367 | 0.335 | 0.419 | 0.457 | 0.354 | 0.271 | 0.36 | 0.303 | 0.8 | 0.737 | 0.595 | 0.711 | 0.613
26 | NCI-H1915 | 0.598 | 0.492 | 0.504 | 0.377 | 0.253 | 0.319 | 0.295 | 0.318 | 0.299 | 0.362 | 0.385 | 0.354 | 0.376 | 0.375 | 1.03 | 1.05 | 1.02 | 1.01 | 1.06
27 | NCI-H1944 | 0.562 | 0.448 | 0.441 | 0.491 | 0.511 | 0.474 | 0.394 | 0.432 | 0.361 | 0.216 | 0.197 | 0.183 | 0.212 | 0.205 | 1.12 | 0.836 | 0.779 | 0.864 | 0.845
28 | NCI-H1975 | 0.726 | 0.605 | 0.582 | 0.473 | 0.256 | 0.388 | 0.319 | 0.347 | 0.3 | 0.429 | 0.397 | 0.401 | 0.41 | 0.366 | 0.673 | 0.703 | 0.609 | 0.628 | 0.543
